Test results: patent publication US9708336B2, “Metallo-beta-lactamase inhibitors” (priority 2014, dated 2017)
Like-named read-outs stand apart in the source and are kept apart here.

What was measured:
NDM-1 = NDM-1 (Klebsiella pneumoniae, UniProt C7C422); test: biochemical; type: biochemical; details: read-out: NDM-1 IC50
IMP-1 = IMP-1 (Serratia marcescens, UniProt P52699); test: biochemical; type: biochemical
VIM-1 = VIM-1 (Pseudomonas aeruginosa (strain ATCC 15692 / DSM 22644 / CIP 104116 / JCM 14847 / LMG 12228 / 1C / PRS 101 / PAO1), UniProt A0A0F7KYQ8); test: Enzyme activity: determination of IC50, fluorescence assay with CCF2-FA substrate (VIM-1); type: biochemical
[1] = system: Escherichia coli expressing NDM-1 (CLB30016); test: Antibiotic potentiation activity: synergistic concentration (MITC95) with imipenem, OD600 growth; type: cell-based
In short: (§1)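 Spectrophotometric growth readings were taken following 22–24 h at 35 °C. Before that, organisms in 1.1× CAMHB were mixed with imipenem, used at 4 μg/ml in assay, and test compound.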

[2] = system: Klebsiella pneumoniae expressing VIM-1 (IHMA599644); test: as above; type: cell-based
In short: as §1

[3] = system: Serratia marcescens expressing IMP-1 (CL5741); test: as above; type: cell-based
In short: as §1

[4] = NDM-1 enzyme, CCF2-FA substrate
[5] = IMP-1 enzyme, CCF2-FA substrate, read-out: IMP-1 IC50
[6] = VIM-1 enzyme, CCF2-FA substrate, read-out: VIM-1 IC50
[7] = (CLB30016, NDM-1), 95% growth inhibition
[8] = Klebsiella pneumoniae IHMA599644 (VIM-1), 95% growth inhibition
[9] = Serratia marcescens CL5741 (IMP-1), 95% growth inhibition
[10] = fluorescence assay with CCF2-FA substrate
[11] = fluorescence assay with CCF2-FA substrate, read-out: IMP-1 IC50
[12] = fluorescence assay with CCF2-FA substrate, read-out: VIM-1 IC50
[13] = CLB30016 (NDM-1), 95% inhibition of bacterial growth
[14] = IHMA599644 (VIM-1), 95% inhibition of bacterial growth
[15] = CL5741 (IMP-1), 95% inhibition of bacterial growth
[16] = NDM-1 enzyme, CCF2-FA fluorescence assay
[17] = IMP-1 enzyme, CCF2-FA fluorescence assay, read-out: IMP-1 IC50
[18] = VIM-1 enzyme, CCF2-FA fluorescence assay, read-out: VIM-1 IC50
[19] = Escherichia coli expressing NDM-1 (CLB30016), 95% growth inhibition
[20] = Klebsiella pneumoniae expressing VIM-1 (IHMA599644), 95% growth inhibition
[21] = Serratia marcescens expressing IMP-1 (CL5741), 95% growth inhibition
[22] = concentration giving 95% inhibition of bacterial growth

NDM-1, sequence (C7C422 whole entry, looked up, species assumed): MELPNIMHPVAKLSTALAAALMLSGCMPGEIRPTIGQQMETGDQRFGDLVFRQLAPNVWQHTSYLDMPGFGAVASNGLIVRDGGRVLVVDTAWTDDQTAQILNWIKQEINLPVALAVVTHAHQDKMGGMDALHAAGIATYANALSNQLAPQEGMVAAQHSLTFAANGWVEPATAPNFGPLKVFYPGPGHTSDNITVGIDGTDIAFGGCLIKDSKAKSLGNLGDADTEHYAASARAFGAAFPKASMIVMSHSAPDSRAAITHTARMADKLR
IMP-1, sequence (P52699 whole entry, looked up): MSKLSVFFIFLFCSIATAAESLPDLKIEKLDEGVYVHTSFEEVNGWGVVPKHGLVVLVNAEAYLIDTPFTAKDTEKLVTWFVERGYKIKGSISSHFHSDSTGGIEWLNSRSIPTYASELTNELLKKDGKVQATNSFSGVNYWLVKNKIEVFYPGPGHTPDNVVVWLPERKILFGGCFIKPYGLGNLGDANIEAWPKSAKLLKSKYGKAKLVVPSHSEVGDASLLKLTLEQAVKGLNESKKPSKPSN

## CC(C)[C@@H](N)CN1CCC(c2ccc(-c3cccc(S(N)(=O)=O)c3-c3nnn[nH]3)cc2)CC1 [Example 614, 3-[4-[1-[(2R)-2-amino-3-methyl-butyl]-4-piperidyl]phenyl]-2-(1H-tetrazol-5-yl)benzenesulfonamide]
NDM-1; [4]
  IC50: 5.89 nM
IMP-1; [5]
  IC50: 11.6 nM
VIM-1; [6]
  IC50: 505 nM
[1]; [7]
  Escherichia coli MITC95: 1.172 µM
[2]; [8]
  Klebsiella pneumoniae MITC95: >200 µM
[3]; [9]
  Serratia marcescens MITC95: 1.563 µM

## NS(=O)(=O)c1c(C(F)(F)F)ccc(N2CCC[C@@H](O)C2)c1-c1nnn[nH]1 [Example 665, 3-[(3R)-3-hydroxypiperidin-1-yl]-2-(1H-tetrazol-5-yl)-6-(trifluoromethyl)benzenesulfonamide]
NDM-1; [4]
  IC50: 7.48 nM
IMP-1; [5]
  IC50: 29.8 nM
VIM-1; [6]
  IC50: 0.999 nM
[1]; [7]
  Escherichia coli MITC95: 1.563 µM
[2]; [8]
  Klebsiella pneumoniae MITC95: 4.688 µM
[3]; [9]
  Serratia marcescens MITC95: 1.172 µM

## Nc1nc2c(-c3ccc(CCCCCO)c(S(N)(=O)=O)c3-c3nn[nH]n3)cccc2s1 [Example 534, 3-(2-Aminobenzo[d]thiazol-4-yl)-6-(5-hydroxypentyl)-2-(2H-tetrazol-5-yl)benzenesulfonamide]
NDM-1; [4]
  IC50: 0.444 nM
IMP-1; [5]
  IC50: 9.53 nM
VIM-1; [6]
  IC50: 0.843 nM
[1]; [7]
  Escherichia coli MITC95: 6.25 µM
[2]; [8]
  Klebsiella pneumoniae MITC95: 12.5 µM
[3]; [9]
  Serratia marcescens MITC95: 25 µM

## NCCN[C@H]1CC[C@H](c2ccc(C(F)(F)F)c(S(N)(=O)=O)c2-c2nnn[nH]2)CC1 [Example 700, 3-{4-[(2-aminoethyl)amino]cyclo-hexyl}-2-(1H-tetrazol-5-yl)-6-(trifluoromethyl)benzene sulfonamide]
NDM-1; [4]
  IC50: 3.94 nM
IMP-1; [5]
  IC50: 16.7 nM
VIM-1; VIM-1 IC50, VIM-1 enzyme, CCF2-FA substrate
  IC50: 0.958 nM
[1]; [7]
  Escherichia coli MITC95: 0.3906 µM
[2]; [8]
  Klebsiella pneumoniae MITC95: 1.563 µM
[3]; [9]
  Serratia marcescens MITC95: 3.125 µM

## CCn1c(N)nc2cc(-c3ccc(C(F)(F)F)c(S(N)(=O)=O)c3-c3nnn[nH]3)ccc21 [Example 752, 3-(2-amino-1-ethyl-1H-benzimidazol-5-yl)-2-(1H-tetrazol-5-yl)-6-(trifluoromethyl)benzenesulfon-amide]
NDM-1; [10]
  IC50: 2.33 nM
IMP-1; [11]
  IC50: 6.25 nM
VIM-1; [12]
  IC50: 0.677 nM
[1]; [13]
  Escherichia coli MITC95: 1.563 µM
[2]; [14]
  Klebsiella pneumoniae MITC95: 25 µM
[3]; [15]
  Serratia marcescens MITC95: 12.5 µM

## NS(=O)(=O)c1cccc(-c2cc3cnccc3s2)c1-c1nnn[nH]1 [Example 411, 2-(1H-tetrazol-5-yl)-3-thieno[3,2-c]pyridin-2-yl-benzenesulfonamide]
NDM-1; [16]
  IC50: 4.84 nM
IMP-1; [17]
  IC50: 102 nM
VIM-1; [18]
  IC50: 27.8 nM
[1]; [19]
  Escherichia coli MITC95: 0.7813 µM
[2]; [20]
  Klebsiella pneumoniae MITC95: 25 µM
[3]; [21]
  Serratia marcescens MITC95: 3.125 µM

## NC[C@H](N)C(=O)NC1CCC(c2ccc(C(F)(F)F)c(S(N)(=O)=O)c2-c2nnn[nH]2)CC1 (stereo partly drawn) [Example 837, (S)-2,3-diamino-N-((1r,4S)-4-(3-sulfamoyl-2-(1H-tetrazol-5-yl)-4-(trifluoromethyl)phenyl)cyclohexyl)propanamide]
NDM-1; [10]
  IC50: 8.68 nM
IMP-1; [11]
  IC50: 21.2 nM
VIM-1; [12]
  IC50: 2.9 nM
[1]; [13]
  Escherichia coli MITC95: 1.563 µM
[2]; [14]
  Klebsiella pneumoniae MITC95: 6.25 µM
[3]; [15]
  Serratia marcescens MITC95: 0.5859 µM

## NCCC1CCC(N[C@H]2CC[C@H](c3ccc(C(F)(F)F)c(S(N)(=O)=O)c3-c3nnn[nH]3)CC2)CC1 (stereo partly drawn) [Example 705, 3-(4-{[4-(2-aminoethyl)cyclohexyl]a-mino}cyclohexyl)-2-(1H-tetrazol-5-yl)-6-(trifluoromethyl)benzene sulfonamide]
NDM-1; [4]
  IC50: 18.2 nM
IMP-1; [5]
  IC50: 61.1 nM
VIM-1; [6]
  IC50: 5.7 nM
[1]; [7]
  Escherichia coli MITC95: 2.344 µM
[2]; [8]
  Klebsiella pneumoniae MITC95: 12.5 µM
[3]; [9]
  Serratia marcescens MITC95: 4.688 µM

## NS(=O)(=O)c1c(C(F)(F)F)ccc(C2CCN(C3CCNCC3)CC2)c1-c1nnn[nH]1 [Example 835, 3-[1-(4-piperidyl)-4-piperidyl]-2-(1H-tetrazol-5-yl)-6-(trifluoromethyl)benzenesulfonamide]
NDM-1; [10]
  IC50: 96 nM
IMP-1; [11]
  IC50: 232 nM
VIM-1; [12]
  IC50: 190 nM
[1]; [13]
  Escherichia coli MITC95: 3.125 µM
[2]; [14]
  Klebsiella pneumoniae MITC95: 100 µM
[3]; [15]
  Serratia marcescens MITC95: 6.25 µM

## NC[C@H]1CC[C@@H](c2ccc(C(F)(F)F)c(S(N)(=O)=O)c2-c2nnn[nH]2)CC1 [Example 500, 3-(cis 4-(Aminomethyl)cyclohexyl)-2-(1H-tetrazol-5-yl)-6-(trifluoromethyl)benzenesulfonamide]
NDM-1; [4]
  IC50: 3.52 nM
IMP-1
  IC50: 9.86 nM
VIM-1; [6]
  IC50: 12.2 nM
[1]; [7]
  Escherichia coli MITC95: 2.344 µM
[2]; [8]
  Klebsiella pneumoniae MITC95: 31.25 µM
[3]; [9]
  Serratia marcescens MITC95: 1.563 µM

## NS(=O)(=O)c1cccc(-c2ccc(CNCCn3ccnn3)cc2)c1-c1nnn[nH]1 [Example 350, 2-(1H-tetrazol-5-yl)-4′-({[2-(1H-1,2,3-triazol-1-yl)ethyl]amino}methyl)biphenyl-3-sulfonamide]
NDM-1; [16]
  IC50: 5.8 nM
IMP-1; [17]
  IC50: 39.7 nM
VIM-1; [18]
  IC50: 246 nM
[1]; [19]
  Escherichia coli MITC95: 1.172 µM
[2]; [20]
  Klebsiella pneumoniae MITC95: >200 µM
[3]; [21]
  Serratia marcescens MITC95: 1.563 µM

## NS(=O)(=O)c1cccc(-c2ccc(CN3CCC3C(=O)O)cc2)c1-c1nnn[nH]1 (stereo not drawn) [Example 378, 1-{[3′-sulfamoyl-2′-(1H-tetrazol-5-yl)biphenyl-4-yl]methyl}azetidine-2-carboxylic acid]
NDM-1; [16]
  IC50: 24.6 nM
IMP-1; [17]
  IC50: 262 nM
VIM-1; [18]
  IC50: 407 nM
[1]; [19]
  Escherichia coli MITC95: 3.125 µM
[2]; [20]
  Klebsiella pneumoniae MITC95: 50 µM
[3]; [21]
  Serratia marcescens MITC95: 6.25 µM

## NS(=O)(=O)c1c(C[C@H]2CC[C@@H](N)CC2)ccc(-c2ccc(C3CCNC3)cc2)c1-c1nnn[nH]1 (stereo partly drawn) [Example 583, 4-(((1s,4s)-4-aminocyclohexyl)methyl)-4′-(pyrrolidin-3-yl)-2-(1H-tetrazol-5-yl)-[1,1′-biphenyl]-3-sulfonamide]
NDM-1; [4]
  IC50: 6.53 nM
IMP-1; [5]
  IC50: 12 nM
VIM-1; [6]
  IC50: 23.6 nM
[1]; [7]
  Escherichia coli MITC95: 3.125 µM
[2]; [8]
  Klebsiella pneumoniae MITC95: 6.25 µM
[3]; [9]
  Serratia marcescens MITC95: 6.25 µM

## N#CCCc1ccc(-c2ccnc3ccccc23)c(-c2nn[nH]n2)c1S(N)(=O)=O [Example 453, 6-(2-cyanoethyl)-3-(quinolin-4-yl)-2-(2H-tetrazol-5-yl)benzenesulfonamide]
NDM-1; [16]
  IC50: 6.88 nM
IMP-1; [17]
  IC50: 111 nM
VIM-1; [18]
  IC50: 0.665 nM
[1]; [19]
  Escherichia coli MITC95: 4.688 µM
[2]; [20]
  Klebsiella pneumoniae MITC95: 6.25 µM
[3]; [21]
  Serratia marcescens MITC95: 12.5 µM

## NS(=O)(=O)c1cccc(-c2ccc(CN3CC[C@H](CO)C3)cc2)c1-c1nnn[nH]1 [Example 392, 4′-{[(3S)-3-(hydroxymethyl)pyrrolidin-l-yl]methyl}-2-(1H-tetrazol-5-yl)biphenyl-3-sulfonamide]
NDM-1; [16]
  IC50: 7.88 nM
IMP-1; [17]
  IC50: 394 nM
VIM-1; VIM-1 IC50, VIM-1 enzyme, CCF2-FA fluorescence assay
  IC50: 455 nM
[1]; [19]
  Escherichia coli MITC95: 2.344 µM
[2]; [20]
  Klebsiella pneumoniae MITC95: 75 µM
[3]; [21]
  Serratia marcescens MITC95: 3.125 µM

## NS(=O)(=O)c1cccc(C2CCC(N3CCNCC3)CC2)c1-c1nn[nH]n1 (stereo not drawn) [Example 170, 3-(4-(piperazin-1-yl)cyclohexyl)-2-(2H-tetrazol-5-yl)benzenesulfonamide]
NDM-1; [10]
  IC50: 21.9 nM
IMP-1; [11]
  IC50: 577 nM
VIM-1; [12]
  IC50: 3470 nM
[1]; [22]
  Escherichia coli expressing NDM-1 (CLB 30016) MITC95: 1.563 µM
[2]; [22]
  Klebsiella pneumoniae expressing VIM-1 (IHMA 599644) MITC95: 200 µM
[3]; [22]
  Serratia marcescens expressing IMP-1 (CL5741) MITC95: 9.375 µM
